Data on 14 substances can be found in patent US20110039763A1, “TARGETED ANTIMICROBIAL MOIETIES” (C3 JIAN, INC., priority 2009, published 2011).

The subject of test [1] is microorganisms. Briefly: Morphology, biofilm and growth disrupting peptides (Table 5). Format: cell-based. On the set-up: key: A: Peptide aggregates; B: Less hyphal formation; Clumps; Diffuse clumps and small polyps; F: Diffuse growth; H: Thin; I: Growth inhibition; Microcolony formation; Rippled; Small polyps; Thick; W: Halo formation on top, microlonies on bottom. The text has this:
In certain embodiments peptides that induce alterations in phenotype or other biological activities can also be used as antimicrobial effector moieties.

The subject of test [2] is microorganisms. As to the kind of experiment: Peptide activities: targeting/binding, antimicrobial, growth or phenotype altering (Tables 7, 8). It is filed as cell-based. To be noted: peptides having multiple activities. An excerpt: In certain embodiments, peptides described herein can have multiple activities. Thus for example, a peptide can have both binding/targeting activity and antimicrobial activity. Such peptides can be used, e.g., in a chimeric construct, for any or all of these properties. Thus, for example, a peptide designated “B” in Table 8 can be used as a targeting peptide. If it is also designated G or M it can also be used for antimicrobial activity.
Table 8. Peptides Having Multiple Activities. B: Targeting/Binding Activity; M: Antimicrobial Activity; G: GROWTH or Phenotype Altering.

For “PF-410: peptide having multiple activities (chain 1 FALELIALCRNLFIVYFP; chain 2 FALELIALCRNLFIVYFP; Peptide with targeting and/or antimicrobial activity)”, in test [1] (E. coli), the “Organism, effect: E. coli” value was “E. coli (S)”. Further, the “Organism, effect: E. faecalis” value in test [1] (E. faecalis) is “E. faecalis (C)”. For the same substance, in test [1] (MRSA), the “Organism, effect: MRSA” value is “MRSA (M)”. For the same substance, the “Organism, effect: S. epidermidis” value in test [1] (S. epidermidis) is listed as “S. epidermidis (C)”. Further, the Activities entry in test [2] is “G B”.

Regarding “PF-411: peptide having multiple activities (chain 1 WVAVAILLNIALQTQLT; chain 2 WVAVAILLNIALQTQLT; Peptide with targeting and/or antimicrobial activity)”, the “Organism, effect: C. jejuni” value in test [1] (C. jejuni) is “C. jejuni (D)”. Moreover, the “Organism, effect: E. coli” value in test [1] (E. coli) is reported as “E. coli (C)”. Moreover, in test [1] (E. faecalis), the “Organism, effect: E. faecalis” value is “E. faecalis (D)”. In test [1] (MRSA), the “Organism, effect: MRSA” value was “MRSA (D)”. The “Organism, effect: P. aeruginosa” value in test [1] (P. aeruginosa) is listed as “P. aeruginosa (A)”. For the same substance, the “Organism, effect: S. epidermidis” value in test [1] (S. epidermidis) is “S. epidermidis (C)”. Further, the “Organism, effect: S. pneumoniae” value in test [1] (S. pneumoniae) is recorded as “S. pneumoniae (D)”. Moreover, the Activities entry in test [2] is “G B”.

“PF-418: peptide having multiple activities (chain 1 FFLVHFYIRKRKGKVSIFLNYF; chain 2 FFLVHFYIRKRKGKVSIFLNYF; Peptide with targeting and/or antimicrobial activity)”: in test [1] (C. jejuni), the “Organism, effect: C. jejuni” value was “C. jejuni (D)”. In test [1] (E. coli), the “Organism, effect: E. coli” value is given as “E. coli (C)”. In test [1] (E. faecalis), the “Organism, effect: E. faecalis” value is on record as “E. faecalis (D)”. In test [1] (MRSA), the “Organism, effect: MRSA” value was “MRSA (D)”. Further, in test [1] (S. epidermidis), the “Organism, effect: S. epidermidis” value is given as “S. epidermidis (M)”. For the same substance, the “Organism, effect: S. pneumoniae” value in test [1] (S. pneumoniae) was “S. pneumoniae (D)”. Also, in test [2], the Activities entry is listed as “G B”.

As to “PF-431: peptide having multiple activities (chain 1 VAYAAICWW; chain 2 VAYAAICWW; Peptide with targeting and/or antimicrobial activity)”, the “Organism, effect” value is “C. jejuni (R)” in test [1] (C. jejuni); “E. faecalis (R)” in test [1] (E. faecalis); “MRSA (C)” in test [1] (MRSA); “S. epidermidis (M)” in test [1] (S. epidermidis); “S. pneumoniae (R)” in test [1] (S. pneumoniae). In addition, the Activities result in test [2] is recorded as “G B”.

Consider “PF-432: peptide having multiple activities (chain 1 FNGDSEFFLCIAF; chain 2 FNGDSEFFLCIAF; Peptide with targeting and/or antimicrobial activity)”, for which the “Organism, effect” value is on record as “C. jejuni (D)” in test [1] (C. jejuni); “E. coli (R)” in test [1] (E. coli); “E. faecalis (D)” in test [1] (E. faecalis); “MRSA (M)” in test [1] (MRSA); “P. aeruginosa (A)” in test [1] (P. aeruginosa); “S. epidermidis (M)” in test [1] (S. epidermidis). In addition, the “Organism, effect” value in test [1] (S. pneumoniae) is recorded as “S. pneumoniae (D)”. For the same substance, the Activities result in test [2] is reported as “G B”.

Turning to “PF-439: peptide having multiple activities (chain 1 RVLVLKKFHGIMDGNRNVAVFFVGQ; chain 2 RVLVLKKFHGIMDGNRNVAVFFVGQ; Peptide with targeting and/or antimicrobial activity)”, the “Organism, effect” value in test [1] (E. coli) was “E. coli (R)”; in test [1] (E. faecalis), “E. faecalis (C)”; in test [1] (MRSA), “MRSA (M)”; in test [1] (S. epidermidis), “S. epidermidis (C)”; in test [1] (S. pneumoniae) it was “S. pneumoniae (R)”. Moreover, in test [2], the Activities result was “G B”.

For “PF-440: peptide having multiple activities (MFIISPDLFNIAVILYILFFIHDILLLILS; Peptide with targeting and/or antimicrobial activity)”, the “Organism, effect” value was “E. coli (R)” in test [1] (E. coli); “E. faecalis (C)” in test [1] (E. faecalis); “MRSA (C)” in test [1] (MRSA); “S. epidermidis (C)” in test [1] (S. epidermidis); “S. pneumoniae (R)” in test [1] (S. pneumoniae). For the same substance, the Activities result in test [2] is listed as “G B”.

As for “PF-443: peptide having multiple activities (KLLYFFNYFENLQQVHLLVQL; Peptide with targeting and/or antimicrobial activity)”, the “Organism, effect” value is on record as “E. coli (R)” in test [1] (E. coli), “MRSA (C)” in test [1] (MRSA) and “S. pneumoniae (C)” in test [1] (S. pneumoniae). Moreover, in test [2], the Activities entry is reported as “G B”.

Consider “PF-450: peptide having multiple activities (HRNLIILQRTIFI; Peptide with targeting and/or antimicrobial activity)”, for which the “Organism, effect” value in test [1] (E. faecalis) is given as “E. faecalis (C)”; in test [1] (MRSA), “MRSA (C)”; in test [1] (S. pneumoniae), “S. pneumoniae (C)”. The Activities entry in test [2] is “G B”.

For the substance “PF-451: peptide having multiple activities (MVNYIIGSYMLYREQNNNEALRKFDITLAM; Peptide with targeting and/or antimicrobial activity)”, the “Organism, effect” value is reported as “E. coli (R)” in test [1] (E. coli); “E. faecalis (C)” in test [1] (E. faecalis); “MRSA (C)” in test [1] (MRSA); “S. epidermidis (C)” in test [1] (S. epidermidis); “S. pneumoniae (C)” in test [1] (S. pneumoniae). For the same substance, in test [2], the Activities result is “G B”.

As to “PF-454: peptide having multiple activities (MSVFVPVTNIFMFIMSPIFNVNLLHFKVYI; Peptide with targeting and/or antimicrobial activity)”, the “Organism, effect” value in test [1] (E. coli) is reported as “E. coli (R)”; in test [1] (E. faecalis), “E. faecalis (C)”; in test [1] (MRSA), “MRSA (C)”; in test [1] (P. aeruginosa), “P. aeruginosa (H)”; in test [1] (S. epidermidis), “S. epidermidis (C)”; in test [1] (S. pneumoniae), “S. pneumoniae (R)”. In addition, the Activities entry in test [2] is listed as “G B”.

Take “PF-458: peptide having multiple activities (ISLIIFIMLFVVALFKCITNYKHQS; Peptide with targeting and/or antimicrobial activity)”: the “Organism, effect” value in test [1] (MRSA) is “MRSA (M)”; in test [1] (P. aeruginosa) it was “P. aeruginosa (H)”; in test [1] (S. pneumoniae), “S. pneumoniae (M)”. For the same substance, in test [2], the Activities entry is given as “G B”.

For the substance “PF-460: peptide having multiple activities (MEHVLPFQNTPPNIVIIYKDFTHLKSITFS; Peptide with targeting and/or antimicrobial activity)”, the “Organism, effect” value in test [1] (E. coli) is “E. coli (H)”; in test [1] (E. faecalis), “E. faecalis (C)”; in test [1] (MRSA), “MRSA (C)”; in test [1] (S. epidermidis), “S. epidermidis (C)”; in test [1] (S. pneumoniae), “S. pneumoniae (R)”. In test [2], the Activities entry is reported as “G B”.

In the case of “PF-465: peptide having multiple activities (KPVGKALEEIADGKIEPVVPKEYLG; Peptide with targeting and/or antimicrobial activity)”, the “Organism, effect” value in test [1] (S. pneumoniae) is listed as “S. pneumoniae (H)”. Also, the Activities entry in test [2] is given as “G B”.
